Measurements published in PubChem BioAssay (NCI).
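The compound was tested at five concentrations on cells cultured in 96-well plates, with a 48-hour exposure period. TGI is the concentration that stops growth completely.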

Legend:
Assay in all cases: NCI anticancer screen, dose series, 48 h
NCI-H23 lung = system: NCI-H23 lung
SK-OV-3 ovarian = system: SK-OV-3 ovarian
HOP-62 NSCLC = system: HOP-62 NSCLC
HOP-92 NSCLC = system: HOP-92 NSCLC
HCT-15 colon = system: HCT-15 colon
SK-MEL-5 melanoma = system: SK-MEL-5 melanoma
K-562 leukemia = system: K-562 leukemia
SW-620 colon = system: SW-620 colon
COLO 205 colon = system: COLO 205 colon
OVCAR-5 ovarian = system: OVCAR-5 ovarian
A549 NSCLC = system: A549 NSCLC
KM12 colon = system: KM12 colon
HCC-2998 colon = system: HCC-2998 colon
U251 CNS = system: U251 CNS
HT29 colon = system: HT29 colon
IGROV1 ovarian = system: IGROV1 ovarian
SF-295 CNS = system: SF-295 CNS
RPMI-8226 leukemia = system: RPMI-8226 leukemia
UACC-62 melanoma = system: UACC-62 melanoma
LOX IMVI melanoma = system: LOX IMVI melanoma
M19-MEL melanoma = system: M19-MEL melanoma
M14 melanoma = system: M14 melanoma
OVCAR-3 ovarian = system: OVCAR-3 ovarian
HOP-18 NSCLC = system: HOP-18 NSCLC
KM20L2 colon = system: KM20L2 colon
OVCAR-8 ovarian = system: OVCAR-8 ovarian
RXF-631 renal = system: RXF-631 renal
A498 renal = system: A498 renal
UO-31 renal = system: UO-31 renal
SNB-19 CNS = system: SNB-19 CNS
CCRF-CEM leukemia = system: CCRF-CEM leukemia
HCT-116 colon = system: HCT-116 colon
SF-268 CNS = system: SF-268 CNS
786-0 renal = system: 786-0 renal
NCI-H460 lung = system: NCI-H460 lung
DMS 273 small cell lung = system: DMS 273 small cell lung
SK-MEL-28 melanoma = system: SK-MEL-28 melanoma
HL-60(TB) leukemia = system: HL-60(TB) leukemia
EKVX NSCLC = system: EKVX NSCLC
MOLT-4 leukemia = system: MOLT-4 leukemia
TK-10 renal = system: TK-10 renal
CAKI-1 renal = system: CAKI-1 renal
SN12C renal = system: SN12C renal
SK-MEL-2 melanoma = system: SK-MEL-2 melanoma
MALME-3M melanoma = system: MALME-3M melanoma
SR leukemia = system: SR leukemia
LXFL 529 NSCLC = system: LXFL 529 NSCLC
RXF 393 renal = system: RXF 393 renal
NCI-H522 lung = system: NCI-H522 lung
SNB-78 CNS = system: SNB-78 CNS
DLD-1 colon = system: DLD-1 colon
SF-539 CNS = system: SF-539 CNS
UACC-257 melanoma = system: UACC-257 melanoma
NCI-H226 lung = system: NCI-H226 lung
OVCAR-4 ovarian = system: OVCAR-4 ovarian
ACHN renal = system: ACHN renal
SNB-75 CNS = system: SNB-75 CNS
DMS 114 small cell lung = system: DMS 114 small cell lung

CC(C)c1cccc(C(C)C)c1NC1=CC(=O)C(=O)c2ccccc21
TGI (NCI-H23 lung): > 100 µM | TGI (SK-OV-3 ovarian): > 100 µM | TGI (HOP-62 NSCLC): > 100 µM | TGI (HOP-92 NSCLC): > 100 µM | TGI (HCT-15 colon): > 100 µM | TGI (SK-MEL-5 melanoma): > 100 µM | TGI (K-562 leukemia): > 100 µM | TGI (SW-620 colon): > 100 µM | TGI (COLO 205 colon): > 100 µM | TGI (OVCAR-5 ovarian): > 100 µM | TGI (A549 NSCLC): > 100 µM | TGI (KM12 colon): > 100 µM | TGI (HCC-2998 colon): > 100 µM | TGI (U251 CNS): > 100 µM | TGI (HT29 colon): > 100 µM | TGI (IGROV1 ovarian): > 100 µM | TGI (SF-295 CNS): > 100 µM | TGI (RPMI-8226 leukemia): > 100 µM | TGI (UACC-62 melanoma): > 100 µM | TGI (LOX IMVI melanoma): > 100 µM | TGI (M19-MEL melanoma): 43.1 µM | TGI (M14 melanoma): > 100 µM | TGI (OVCAR-3 ovarian): > 100 µM | TGI (HOP-18 NSCLC): > 100 µM | TGI (KM20L2 colon): > 100 µM | TGI (OVCAR-8 ovarian): > 100 µM | TGI (RXF-631 renal): > 100 µM | TGI (A498 renal): > 100 µM | TGI (UO-31 renal): > 100 µM | TGI (SNB-19 CNS): > 100 µM | TGI (CCRF-CEM leukemia): > 100 µM | TGI (HCT-116 colon): > 100 µM | TGI (SF-268 CNS): > 100 µM | TGI (786-0 renal): > 100 µM | TGI (NCI-H460 lung): > 100 µM | TGI (DMS 273 small cell lung): > 100 µM | TGI (SK-MEL-28 melanoma): > 100 µM | TGI (HL-60(TB) leukemia): > 100 µM | TGI (EKVX NSCLC): > 100 µM | TGI (MOLT-4 leukemia): > 100 µM | TGI (TK-10 renal): > 100 µM | TGI (CAKI-1 renal): > 100 µM | TGI (SN12C renal): > 100 µM | TGI (SK-MEL-2 melanoma): > 100 µM | TGI (MALME-3M melanoma): > 100 µM | TGI (SR leukemia): > 100 µM | TGI (LXFL 529 NSCLC): > 100 µM | TGI (RXF 393 renal): > 100 µM | TGI (NCI-H522 lung): > 100 µM | TGI (SNB-78 CNS): > 100 µM | TGI (DLD-1 colon): > 100 µM | TGI (SF-539 CNS): > 100 µM | TGI (UACC-257 melanoma): > 100 µM | TGI (NCI-H226 lung): > 100 µM

Cc1cc2c(cc1C)[n+]([O-])c(-c1c(Cl)cccc1Cl)c(N)[n+]2[O-]
TGI (NCI-H23 lung): 75.8 µM | TGI (SK-OV-3 ovarian): > 100 µM | TGI (HOP-62 NSCLC): 96.8 µM | TGI (HOP-92 NSCLC): > 100 µM | TGI (HCT-15 colon): > 100 µM | TGI (SK-MEL-5 melanoma): 41.7 µM | TGI (K-562 leukemia): > 100 µM | TGI (SW-620 colon): > 100 µM | TGI (COLO 205 colon): 38.4 µM | TGI (OVCAR-5 ovarian): > 100 µM | TGI (A549 NSCLC): 98.9 µM | TGI (KM12 colon): > 100 µM | TGI (HCC-2998 colon): > 100 µM | TGI (U251 CNS): > 100 µM | TGI (HT29 colon): > 100 µM | TGI (IGROV1 ovarian): > 100 µM | TGI (SF-295 CNS): > 100 µM | TGI (RPMI-8226 leukemia): > 100 µM | TGI (UACC-62 melanoma): > 100 µM | TGI (LOX IMVI melanoma): > 100 µM | TGI (M19-MEL melanoma): > 100 µM | TGI (OVCAR-4 ovarian): > 100 µM | TGI (M14 melanoma): > 100 µM | TGI (OVCAR-3 ovarian): 99.5 µM | TGI (HOP-18 NSCLC): 86.4 µM | TGI (KM20L2 colon): > 100 µM | TGI (OVCAR-8 ovarian): > 100 µM | TGI (ACHN renal): > 100 µM | TGI (RXF-631 renal): 35.7 µM | TGI (A498 renal): 79.9 µM | TGI (UO-31 renal): 88.8 µM | TGI (SNB-19 CNS): > 100 µM | TGI (SF-268 CNS): > 100 µM | TGI (786-0 renal): > 100 µM | TGI (NCI-H460 lung): > 100 µM | TGI (DMS 273 small cell lung): 86.3 µM | TGI (SK-MEL-28 melanoma): 89.6 µM | TGI (HL-60(TB) leukemia): > 100 µM | TGI (EKVX NSCLC): > 100 µM | TGI (MOLT-4 leukemia): > 100 µM | TGI (TK-10 renal): > 100 µM | TGI (CAKI-1 renal): 95.1 µM | TGI (SN12C renal): > 100 µM | TGI (SNB-75 CNS): > 100 µM | TGI (SK-MEL-2 melanoma): > 100 µM | TGI (MALME-3M melanoma): 92.3 µM | TGI (LXFL 529 NSCLC): > 100 µM | TGI (NCI-H522 lung): 28 µM | TGI (SNB-78 CNS): > 100 µM | TGI (DLD-1 colon): > 100 µM | TGI (SF-539 CNS): > 100 µM | TGI (DMS 114 small cell lung): 98.7 µM | TGI (UACC-257 melanoma): 83.6 µM | TGI (NCI-H226 lung): 74.4 µM
